Experimental data: US20250084087A1, “BICYCLIC HETEROCYCLES AS MRGPRX2 ANTAGONISTS” (Incyte Corporation, priority 2023, published 2025)

Key:
Assay type in all cases: cell-based
MRGPRX2 [1] = target: T1, MRGPRX2 (Homo sapiens, UniProt Q96LB1); experiment: MRGPRX2 FLIPR calcium mobilization assay; parameters: host or cells: CHO-K1; conditions: CHO-K1 cells stably expressing human MRGPRX2; Ca2+ release; agonist Cortistatin-14 at EC80
T1 sequence (Q96LB1 1-330): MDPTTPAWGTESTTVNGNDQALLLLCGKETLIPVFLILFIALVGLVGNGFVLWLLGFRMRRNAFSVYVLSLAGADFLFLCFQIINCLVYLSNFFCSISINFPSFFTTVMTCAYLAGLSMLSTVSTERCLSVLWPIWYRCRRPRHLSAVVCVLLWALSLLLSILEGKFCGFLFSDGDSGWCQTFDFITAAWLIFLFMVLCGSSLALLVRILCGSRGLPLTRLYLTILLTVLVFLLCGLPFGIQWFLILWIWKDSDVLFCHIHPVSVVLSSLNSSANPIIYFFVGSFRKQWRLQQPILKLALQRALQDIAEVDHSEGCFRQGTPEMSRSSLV
Experimental: Example A. MRGPRX2 FLIPR Calcium Mobilization Assay
Chinese hamster ovary (CHO-K1) cells stably expressing human MRGPRX2 were purchased from Genescript (Piscataway, NJ). The cells were maintained in culture medium (Ham's F-12K) containing 10% (v/v) FBS, 200 μg/mL Zeocin, 100 units/mL penicillin G and 100 μg/mL streptomycin (Life Technologies, Carlsbad, CA). For the assay, the cells were harvested and resuspended with culture medium without Zeocin before plating at 8000 cells per well in 20 μL in 384-well black clear bottom cell culture plates (VWR, Radnor, PA). After 24 hour culture at 37° C. and 5% CO2, the cells were loaded with 20 μL/well of calcium dye (FLIPR Calcium 6 Assay Kit, Molecular Devices, San Jose, CA) diluted in loading buffer (1× Hank's Balanced Salt Solution (HBSS), 5 mM probenecid, 20 mM 4-(2-hydroxyethyl)-1-piperazineethanesulfonic acid (HEPES), pH 7.4, VWR, Radnor, PA) followed with 45 min. incubation at 37° C. and 40 min. at r.t. in the dark. Cells were then treated with the addition of 10 uL/well test compounds with a range of increasing concentrations diluted in the assay buffer (1×HBSS, 20 mM HEPES, pH 7.4, VWR, Radnor, PA) with FLIPR Penta (Molecular Devices. San Jose, CA) and incubated for 30 min. at r.t. Ca^2+ release was measured with FLIPR Penta with 10 seconds basal fluorescence measurement, then 12.5 μL of 5× agonist Cortistatin-14 (Tocris, Minneapolis, MN) at final concentration corresponding to the EC80 were added followed with continued fluorescence signal monitoring for an additional 110 seconds. The base line adjusted (median of first 10s base line) max value of the Relative Fluorescence Unit (RFU) was plotted against compound concentrations. Wells with no compound were served as the positive controls, and wells with high concentration of reference antagonist were used as negative controls. IC50 curves were globally fitted with 3- or 4-parameter Hill equation in a Genedata Screener (Genedata Basel, Switzerland).

MRGPRX2 [2] = target: T1, MRGPRX2; experiment: MRGPRX2 IP1 HTRF assay; parameters: host or cells: CHO-K1; conditions: CHO-K1 cells stably expressing human MRGPRX2; IP1 accumulation; agonist Cortistatin 14 1 μM
In short: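 CHO-K1 cells stably expressing human MRGPRX2, preincubated with compound 1 h at 37 °C, then stimulated with 1 μM Cortistatin 14 for 1 h. IP1 measured by HTRF against standard curve, normalized to DMSO and reference antagonist controls; IC50 from 3- or 4-parameter Hill fit.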

MRGPRX2 [3] = target: T1, MRGPRX2; experiment: MRGPRX2 β-Arrestin recruitment assay (PathHunter); parameters: host or cells: CHO-K1 (PathHunter); conditions: PathHunter CHO-K1 MRGPRX2 β-Arrestin cell line; agonist Cortistatin 14 0.25 μM
In short: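 CHO-K1 PathHunter cells co-expressing ProLink-tagged MRGPRX2 and enzyme-acceptor-tagged β-arrestin were preincubated with compound 1 h at 37° C., then stimulated with cortistatin-14 (0.25 μM final) for 90 min. Enzyme-complementation luminescence read after 1 h detection; data normalized to DMSO and reference antagonist, IC50 from 3- or 4-parameter Hill fit.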

| IC50 (MRGPRX2 [1]) [nM] | IC50 (MRGPRX2 [2]) [nM] | IC50 (MRGPRX2 [3]) [nM] | SMILES |
| --- | --- | --- | --- |
| 0.1 to 100 | 0.1 to 100 | 100 to 1000 | NS(=O)(=O)N1CC[C@](CNc2cc(C(F)(F)F)nc3cc(C(F)(F)F)nn23)(c2ccccc2)C1 (stereo in doubt) [Example 3, 3-(((2,5-Bis(trifluoromethyl)pyrazolo[1,5-a]pyrimidin-7-yl)amino)methyl)-3-phenylpyrrolidine-1-sulfonamide] |
| 0.1 to 100 | 0.1 to 100 | 0.1 to 100 | NC(=O)N1CCC(CNc2cc(C(F)(F)F)nc3cc(C(F)(F)F)nn23)(c2ccccc2)C1 (stereo not drawn) [Example 4, 3-(((2,5-Bis(trifluoromethyl)pyrazolo[1,5-a]pyrimidin-7-yl)amino)methyl)-3-phenylpyrrolidine-1-carboxamide] |
| 0.1 to 100 | 0.1 to 100 | 0.1 to 100 | NS(=O)(=O)N1CCC(CNc2cc(C(F)(F)F)nc3cc(C(F)(F)F)nn23)(c2ccccc2)CC1 [Example 6, 4-(((2,5-Bis(trifluoromethyl)pyrazolo[1,5-a]pyrimidin-7-yl)amino)methyl)-4-phenylpiperidine-1-sulfonamide] |
| 0.1 to 100 | 100 to 1000 | 0.1 to 100 | Cc1cc2nc(C(F)(F)F)cc(NCC3(c4ccccc4)CCNCC3)n2n1 [Example 8, 2-Methyl-N-((4-phenylpiperidin-4-yl)methyl)-5-(trifluoromethyl)pyrazolo[1,5-a]pyrimidin-7-amine] |
| 0.1 to 100 | 0.1 to 100 | – | CNC(=O)N1CCC(CNc2cccc3nc(C(F)(F)F)nn23)(c2ccccc2)CC1 [Example 13, N-Methyl-4-phenyl-4-(((2-(trifluoromethyl)-[1,2,4]triazolo[1,5-a]pyridin-5-yl)amino)methyl)piperidine-1-carboxamide] |
| 0.1 to 100 | 100 to 1000 | – | COC(=O)N1CCC(CNc2cc(C(F)(F)F)nc3cc(C(F)(F)F)nn23)(c2ccccc2)CC1 [Example 14, Methyl 4-(((2,5-bis(trifluoromethyl)pyrazolo[1,5-a]pyrimidin-7-yl)amino)methyl)-4-phenylpiperidine-1-carboxylate] |
| 0.1 to 100 | 0.1 to 100 | – | CNC(=O)N1CCC(CNc2cc(C(F)(F)F)nc3cc(C(F)(F)F)nn23)(c2ccccc2)CC1 [Example 15, 4-(((2,5-Bis(trifluoromethyl)pyrazolo[1,5-a]pyrimidin-7-yl)amino)methyl)-N-methyl-4-phenylpiperidine-1-carboxamide] |
| 0.1 to 100 | 0.1 to 100 | – | NC(=O)N1CCC(CNc2cc(C(F)(F)F)nc3cc(C(F)(F)F)nn23)(c2ccccc2)CC1 [Example 16, 4-(((2,5-Bis(trifluoromethyl)pyrazolo[1,5-a]pyrimidin-7-yl)amino)methyl)-4-phenylpiperidine-1-carboxamide] |
| 0.1 to 100 | 0.1 to 100 | – | O=C(N1CCC(CNc2cccc3nc(C(F)(F)F)cn23)(c2ccccc2)CC1)N1CC(F)(F)C1 [Example 19, (3,3-Difluoroazetidin-1-yl)(4-phenyl-4-(((2-(trifluoromethyl)imidazo[1,2-a]pyridin-5-yl)amino)methyl)piperidin-1-yl)methanone] |
| 0.1 to 100 | 0.1 to 100 | – | NC(=O)N1CCC(CNc2cc(C(F)(F)F)nc3cc(Br)nn23)(c2ccc(F)cn2)CC1 [Example 22, 4-(((2-Bromo-5-(trifluoromethyl)pyrazolo[1,5-a]pyrimidin-7-yl)amino)methyl)-4-(5-fluoropyridin-2-yl)piperidine-1-carboxamide] |
| 0.1 to 100 | 100 to 1000 | – | N#CCC(=O)N1CCC(CNc2cccc3nc(C(F)(F)F)cn23)(c2ccc(F)cn2)CC1 [Example 24, 3-(4-(5-Fluoropyridin-2-yl)-4-(((2-(trifluoromethyl)imidazo[1,2-a]pyridin-5-yl)amino)methyl)piperidin-1-yl)-3-oxopropanenitrile] |
| 0.1 to 100 | 0.1 to 100 | – | CNC(=O)N1CCC(CNc2cccc3nc(C(F)(F)C(F)(F)F)cn23)(c2ccccc2)CC1 [Example 26, N-Methyl-4-(((2-(perfluoroethyl)imidazo[1,2-a]pyridin-5-yl)amino)methyl)-4-phenylpiperidine-1-carboxamide] |
| 0.1 to 100 | 0.1 to 100 | – | CNC(=O)N1CCC(CNc2cc(Cl)cc3nc(C(F)(F)F)cn23)(c2ccccc2)CC1 [Example 27, 4-(((7-Chloro-2-(trifluoromethyl)imidazo[1,2-a]pyridin-5-yl)amino)methyl)-N-methyl-4-phenylpiperidine-1-carboxamide] |
| 0.1 to 100 | 0.1 to 100 | – | CNC(=O)N1CCC(CNc2cc(C)cc3nc(C(F)(F)F)cn23)(c2ccccc2)CC1 [Example 28, N-Methyl-4-(((7-methyl-2-(trifluoromethyl)imidazo[1,2-a]pyridin-5-yl)amino)methyl)-4-phenylpiperidine-1-carboxamide] |
| 0.1 to 100 | 100 to 1000 | – | CNC(=O)N1CCC(CNc2cccc3nc(C(C)C)cn23)(c2ccccc2)CC1 [Example 29, 4-(((2-Isopropylimidazo[1,2-a]pyridin-5-yl)amino)methyl)-N-methyl-4-phenylpiperidine-1-carboxamide] |
| 0.1 to 100 | 0.1 to 100 | – | NS(=O)(=O)N1CC(CNc2cccc3nc(C(F)(F)F)cn23)(c2ccc(F)cc2)C1 [Example 34, 3-(4-Fluorophenyl)-3-(((2-(trifluoromethyl)imidazo[1,2-a]pyridin-5-yl)amino)methyl)azetidine-1-sulfonamide] |
| 0.1 to 100 | 0.1 to 100 | – | NC(=O)N1CC(CNc2cccc3nc(C(F)(F)F)cn23)(c2ccc(F)cc2)C1 [Example 35, 3-(4-Fluorophenyl)-3-(((2-(trifluoromethyl)imidazo[1,2-a]pyridin-5-yl)amino)methyl)azetidine-1-carboxamide] |
| 0.1 to 100 | 0.1 to 100 | – | FC(F)(F)c1cn2c(NCC3(c4ccc(Br)cc4)CCC3)cccc2n1 [Example 38, N-((1-(4-Bromophenyl)cyclobutyl)methyl)-2-(trifluoromethyl)imidazo[1,2-a]pyridin-5-amine] |
| 0.1 to 100 | 100 to 1000 | – | Cc1cc2nc(C(F)(F)F)cc(NCC3(c4ccccc4)CCOC3)n2n1 (stereo not drawn) [Example 77, 2-Methyl-N-((3-phenyltetrahydrofuran-3-yl)methyl)-5-(trifluoromethyl)pyrazolo[1,5-a]pyrimidin-7-amine] |
| 100 to 1000 | > 1000 | – | N#Cc1cc2nc(Cl)cc(NCC3(c4ccccc4)CCNCC3)n2n1 [Example 104, 5-Chloro-7-(((4-phenylpiperidin-4-yl)methyl)amino)pyrazolo[1,5-a]pyrimidine-2-carbonitrile] |

| SMILES | IC50 (MRGPRX2 [1]) [nM] | IC50 (MRGPRX2 [2]) [nM] | IC50 (MRGPRX2 [3]) [nM] |
| --- | --- | --- | --- |
| CN1CCC(CNc2cc(C(F)(F)F)nc3cc(C(F)(F)F)nn23)(c2ccccc2)CC1 [Example 17, N-((1-Methyl-4-phenylpiperidin-4-yl)methyl)-2,5-bis(trifluoromethyl)pyrazolo[1,5-a]pyrimidin-7-amine] | 0.1 to 100 | 0.1 to 100 | – |
| OCCN1CCC(CNc2cccc3nc(C(F)(F)F)cn23)(c2ccc(F)cn2)CC1 [Example 23, 2-(4-(5-Fluoropyridin-2-yl)-4-(((2-(trifluoromethyl)imidazo[1,2-a]pyridin-5-yl)amino)methyl)piperidin-1-yl)ethan-1-ol] | 100 to 1000 | 100 to 1000 | – |
